Data taken from patent US7423030B2, “1-amino-phthalazine derivatives, the preparation and the therapeutic use thereof” (Sanofi-Aventis, priority 2004, dated 2008).
Where a name gives a salt, the structure may show the parent alone.

Assays:
MCH1 receptor [1] = biological target: MCH1 receptor (UniProt P97639); experiment: Displacement of [125I]-Tyr-S36057 binding to MCH1 receptors on brain membrane preparations; settings: rat and/or mouse brain membranes, 50 pM [125I]-Tyr-S36057, room temperature, 30 minutes; read-out: IC50 (concentration that inhibits 50% of the specific binding)
Description: The compounds according to the invention underwent pharmacological tests. Their affinity towards the receptor 1 of Melamin-Concentrating Hormone (MCH), MCH1 was determined by these means.
The tests consisted in measuring the in vitro activity of the compounds of the invention on the MCH1 receptors of MCH.
The measurement of the affinity of the compounds of the invention for the MCH receptors was performed by studying the displacement of the binding of a radiolabelled derivative of MCH to the MCH1 receptors. This study was performed on rat and/or mouse brain membrane preparations according to the protocol described below.
In anticipation of the binding studies, the brains are diluted in HEPES buffer 25 mM (pH: 7.4) containing MgCl2 5 mM, CaCl2 1 mM, homogenized using a Polytron blender for 3 times 20 seconds (speed 25), and are then ultracentrifuged at 22 000 rpm and at +4° C. for 30 minutes. […]
The incubation is performed at room temperature for 30 minutes, and then stopped by rapid addition of ice-cold HEPES buffer 25 mM (pH: 7.4) supplemented with 0.2% bovine serum albumin, and by filtration through GF/B glass fibre filters preincubated for 2 hours in an aqueous 0.1% polyethyleneimine solution. The radioactivity retained on the filters is measured using a Gamma scintillation counter. The non-specific binding is determined in the presence of 1 μM of non-radiolabelled S36057. […]

MCH1 receptor [2] = settings: social conflict and forced swimming in rats, maternal separation in guinea pigs; cited from earlier work

For `c1ccc(-c2ccc3c(-c4ccccc4)nnc(NC4CCN(Cc5ccc6ccccc6c5)CC4)c3c2)cc1` [Example 42, 4,7-diphenyl-N-[1-(naphthalen-2-ylmethyl)piperidin-4-yl]-phthalazin-1-amine dihydrochloride], the IC50 (MCH1 receptor [1]) was 360 nM.

In the case of `COCC1=C(C(=O)OC)[C@H](c2ccc(F)c(F)c2)N(C(=O)NCCCN2CCC(c3cccc(NC(C)=O)c3)CC2)C(=O)N1` [SNAP-7941], the “behavioural profile in animal models” value (MCH1 receptor [2]) is given as “anxiolytic and/or antidepressant profile”.

Compound `COc1ccc(-c2nnc(NC3CCN(Cc4ccccc4)CC3)c3cc(OC)cc(OC)c23)cc1` [Example 2, N-(1-benzylpiperidin-4-yl)-5,7-dimethoxy-4-(4-methoxyphenyl)phthalazin-1-amine] has an IC50 (MCH1 receptor [1]) of 72 nM.

For `COc1cccc(-c2nnc(NC3CCN(Cc4ccccc4)CC3)c3cc(OC)ccc23)c1` (as salt: salt) (hydrate or solvate) [Compound 6, N-(1-benzylpiperidin-4-yl)-7-methoxy-4-(3-methoxyphenyl)phthalazin-1-amine], the melting point was 176 °C.

In the case of `COc1ccc(-c2nnc(NC3CCN(Cc4ccccc4)CC3)c3cc(OC)ccc23)cc1` (as salt: salt) (hydrate or solvate) [Compound 7, N-(1-benzylpiperidin-4-yl)-7-methoxy-4-(4-methoxyphenyl)phthalazin-1-amine], the melting point is reported as 150 °C.

With `COc1ccc(-c2nnc(N[C@@H]3CCN(Cc4ccc5ccccc5c4)C3)c3cc(OC)ccc23)cc1.Cl.Cl` (hydrate or solvate) the melting point was 254 °C.

Compound `COc1ccc2c(CO)nnc(NC3CCN(Cc4ccc5ccccc5c4)CC3)c2c1` (as salt: HCl) (hydrate or solvate) [Compound 148, 4-Hydroxymethyl-7-methoxy-N-[1-(naphthalen-2-ylmethyl)piperidin-4-yl]phthalazin-1-amine] has a melting point of 186 °C.

`COc1ccc(-c2nnc(NC3CCN(Cc4ccc(CN5CCCC5)cc4)CC3)c3cc(OC)ccc23)cc1.Cl.Cl.Cl` (hydrate or solvate) gave a melting point of 222 °C.

In the case of `COc1ccc(-c2nnc(NC3CCN(Cc4ccc(C(C)O)cc4)CC3)c3cc(OC)ccc23)cc1.Cl.Cl` (stereo not drawn) (hydrate or solvate), the melting point is reported as 208 °C.

For `COc1ccc(-c2nnc(NC3CCN(Cc4ccc5c(c4)OCO5)CC3)c3cc(OC)ccc23)cc1.Cl.Cl` (hydrate or solvate), the melting point was 235 °C.

In the case of `COc1ccc(-c2nnc(NC3CCN(Cc4ccc5ncsc5c4)CC3)c3cc(OC)ccc23)cc1` (as salt: salt) (hydrate or solvate) [Compound 59, N-[1-(1,3-benzothiazol-6-ylmethyl)piperidin-4-yl]-7-methoxy-4-(4-methoxyphenyl)phthalazin-1-amine], the melting point is reported as 180 °C.

Compound `COc1ccc(-c2nnc(NC3CCN(Cc4ccc5ncccc5c4)CC3)c3cc(OC)ccc23)cc1` (as salt: salt) (hydrate or solvate) [Compound 99, 7-methoxy-4-(4-methoxyphenyl)-N-[1-(quinolin-6-ylmethyl)piperidin-4-yl]phthalazin-1-amine] has a melting point of 249 °C.
